Test results taken from ChEMBL document CHEMBL2406931, “The inhibitory effect of a synthetic compound, (Z)-5-(2,4-dihydroxybenzylidene) thiazolidine-2,4-dione (MHY498), on nitric oxide-induced melanogenesis” (2013).
Active and inactive are the calls of the source. The rule behind the calls is not given here.

How the values were obtained:
[1] = system: B16-F10; assay: Antimelanogenic activity in mouse B16F10 cells assessed as reduction in SNP-induced tyrosinase protein level by Western blotting analysis; assay type: functional, cell-based
[2] = biological target: T1, Tyrosinase (Mus musculus) (UniProt P11344); assay: Inhibition of tyrosinase in SNP-stimulated mouse B16F10 cells at 16 uM incubated for 1 hr prior to SNP challenge measured after 48 hrs (reference value: 198.83 +/- 11.46%); assay type: cell-based; conditions: B16-F10, values are per cent of control
T1 sequence (whole entry): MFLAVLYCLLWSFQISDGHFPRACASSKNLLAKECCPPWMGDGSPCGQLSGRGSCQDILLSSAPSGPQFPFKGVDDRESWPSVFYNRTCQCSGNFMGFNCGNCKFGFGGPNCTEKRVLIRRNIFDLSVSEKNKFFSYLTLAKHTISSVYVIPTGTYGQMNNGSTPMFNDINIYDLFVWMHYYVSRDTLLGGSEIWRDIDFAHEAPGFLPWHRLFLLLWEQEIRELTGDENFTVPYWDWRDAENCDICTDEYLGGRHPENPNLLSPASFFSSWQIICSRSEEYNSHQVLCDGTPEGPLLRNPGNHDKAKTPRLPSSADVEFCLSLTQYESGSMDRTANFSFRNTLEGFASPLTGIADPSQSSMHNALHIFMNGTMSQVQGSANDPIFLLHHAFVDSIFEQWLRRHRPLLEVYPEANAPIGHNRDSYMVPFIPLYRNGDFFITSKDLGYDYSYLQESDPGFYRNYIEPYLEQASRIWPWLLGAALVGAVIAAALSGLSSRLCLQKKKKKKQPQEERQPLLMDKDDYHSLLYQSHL

[3] = system: B16-F10; assay: Antimelanogenic activity in mouse B16F10 cells assessed as reduction of SNP-induced melanin level incubated for 1 hr prior to SNP challenge measured after 48 hrs; assay type: functional, cell-based
[4] = system: B16-F10; assay: Inhibition of SNP-induced NO production in mouse B16F10 cells assessed as decrease of intracellular cGMP level at 4 uM incubated for 1 hr prior to SNP challenge measured after 30 mins by EIA relative to control; assay type: functional; conditions: values are per cent of control
[5] = system: B16-F10; assay: Inhibition of SNP-induced NO production in mouse B16F10 cells assessed as decrease of intracellular cGMP level incubated for 1 hr prior to SNP challenge measured after 30 mins by EIA relative to control; assay type: functional, cell-based
[6] = system: B16-F10; assay: Inhibition of SNP-induced NO production in mouse B16F10 cells incubated 1 hr prior to SNP challenge measured after 48 hrs by Griess assay; assay type: functional, cell-based
[7] = system: B16-F10; assay: Inhibition of SNP-induced NO production in mouse B16F10 cells at 4 uM incubated 1 hr prior to SNP challenge measured after 48 hrs by Griess assay (reference value: 237.84 +/- 4.12%); values are per cent of control
[8] = system: B16-F10; assay: Antimelanogenic activity in mouse B16F10 cells assessed as reduction in SNP-induced phosphorylated CREB level at 0.5 to 4 uM by Western blotting analysis; assay type: functional, cell-based
[9] = system: B16-F10; assay: Antimelanogenic activity in mouse B16F10 cells assessed as reduction of SNP-induced melanin level at 0.5 uM incubated for 1 hr prior to SNP challenge measured after 48 hrs (reference value: 282.59 +/- 47.06%); assay type: functional
[10] = system: B16-F10; assay: Antimelanogenic activity in mouse B16F10 cells assessed as reduction in SNP-induced nuclear MITF level by Western blotting analysis; assay type: functional, cell-based
[11] = system: B16-F10; assay: Inhibition of SNP-induced NO production in mouse B16F10 cells assessed as decrease of intracellular cGMP level at 0.5 uM incubated for 1 hr prior to SNP challenge measured after 30 mins by EIA relative to control; assay type: functional; conditions: values are per cent of control
[12] = system: B16-F10; assay: Antimelanogenic activity in mouse B16F10 cells assessed as reduction of SNP-induced melanin level at 4 uM incubated for 1 hr prior to SNP challenge measured after 48 hrs (reference value: 282.59 +/- 47.06%); assay type: functional
[13] = system: B16-F10; assay: Inhibition of SNP-induced NO production in mouse B16F10 cells at 0.5 uM incubated 1 hr prior to SNP challenge measured after 48 hrs by Griess assay (reference value: 237.84 +/- 4.12%); values are per cent of control
[14] = biological target: T1, Tyrosinase (Mus musculus); assay: Inhibition of tyrosinase in SNP-stimulated mouse B16F10 cells at 4 uM incubated for 1 hr prior to SNP challenge measured after 48 hrs (reference value: 198.83 +/- 11.46%); assay type: cell-based; conditions: B16-F10, values are per cent of control
[15] = biological target: T1, Tyrosinase (Mus musculus); assay: Inhibition of tyrosinase in SNP-stimulated mouse B16F10 cells at 0.5 uM incubated for 1 hr prior to SNP challenge measured after 48 hrs (reference value: 198.83 +/- 11.46%); assay type: cell-based; conditions: B16-F10, values are per cent of control
[16] = system: B16-F10; assay: Inhibition of SNP-induced NO production in mouse B16F10 cells at 16 uM incubated 1 hr prior to SNP challenge measured after 48 hrs by Griess assay (reference value: 237.84 +/- 4.12%); values are per cent of control
[17] = system: B16-F10; assay: Inhibition of SNP-induced NO production in mouse B16F10 cells assessed as decrease of intracellular cGMP level at 16 uM incubated for 1 hr prior to SNP challenge measured after 30 mins by EIA relative to control; assay type: functional; conditions: values are per cent of control
[18] = system: B16-F10; assay: Antimelanogenic activity in mouse B16F10 cells assessed as reduction in SNP-induced phosphorylated CREB level at 16 uM by Western blotting analysis; assay type: functional, cell-based
[19] = system: B16-F10; assay: Antimelanogenic activity in mouse B16F10 cells assessed as reduction of SNP-induced melanin level at 16 uM incubated for 1 hr prior to SNP challenge measured after 48 hrs (reference value: 282.59 +/- 47.06%); assay type: functional
[20] = biological target: T1, Tyrosinase (Mus musculus); assay: Inhibition of tyrosinase in mouse B16F10 cells at 30 uM incubated for 1 hr prior to SNP challenge measured after 48 hrs (reference value: 198.83 +/- 11.46%); assay type: cell-based; conditions: B16-F10

Q: With `O=C1NC(=O)/C(=C/c2ccc(O)cc2O)S1` as the compound, how does the inhibition [1] read?
A: Its inhibition is “Dose-dependent effect”.

Q: And the residual activity [2]?
A: The residual activity was 31.8%.

Q: What about the inhibition [3] of the same compound?
A: The inhibition was “Dose-dependent effect”.

Q: What about the response, % of control at 4 µM [4] of the same compound?
A: Its response, % of control at 4 µM is 154%.

Q: What about the inhibition [5] of the same compound?
A: The inhibition was “Dose-dependent effect”.

Q: What about the inhibition [6] of the same compound?
A: The inhibition was “Dose-dependent effect”.

Q: And the level, % of control at 4 µM [7]?
A: The level, % of control at 4 µM was 183%.

Q: And the inhibition [8]?
A: Its inhibition is “inactive”.

Q: What about the level, % of control at 0.5 µM [9] of the same compound?
A: The level, % of control at 0.5 µM was 151%.

Q: And the inhibition [10]?
A: The inhibition was “Dose-dependent effect”.

Q: And the response, % of control at 0.5 µM [11]?
A: The response, % of control at 0.5 µM was 177%.

Q: What about the level, % of control at 4 µM [12] of the same compound?
A: The level, % of control at 4 µM was 114%.

Q: What about the level, % of control at 0.5 µM [13] of the same compound?
A: Its level, % of control at 0.5 µM is 200%.

Q: And the residual activity [14]?
A: Its residual activity is 60.5%.

Q: What about the residual activity [15] of the same compound?
A: The residual activity was 84.8%.

Q: And the level, % of control at 16 µM [16]?
A: The level, % of control at 16 µM was 172%.

Q: And the response, % of control at 16 µM [17]?
A: Its response, % of control at 16 µM is 83.1%.

Q: What about the inhibition [18] of the same compound?
A: Its inhibition is “Active”.

Q: And the level, % of control at 16 µM [19]?
A: Its level, % of control at 16 µM is 100%.

Q: Which results are given for `CC1(C)N([O])C(c2ccc(C(=O)O)cc2)=[N+]([O-])C1(C)C`?
A: level, % of control at 16 µM [16]: 206%; response, % of control at 16 µM [17]: 153%; inhibition [18]: Active; inhibition [20]: 34.3%; level, % of control at 16 µM [19]: 173%
